Measurements taken from ChEMBL document CHEMBL1142263, “Structural analogs of tylophora alkaloids may not be functional analogs” (Bioorg Med Chem Lett, 2008).
Activity calls are given as the source filed them. The calls are words filed in the database; no cut-off is given here.

tested on: not listed separately; assay: Growth inhibition of human HepG cells; format: functional

Structure (SMILES) | GI50
COc1ccc2c(CN3CCC[C@H]3CO)cc3cc4c(cc3c2c1)OCO4 | 5.4 µM
COc1ccc2c3c(c4cc(OC)c(OC)cc4c2c1)CC1CCCCN1C3 (racemic) | 0.0015 µM
COc1cc2c3c(c4cc(OC)c(OC)cc4c2cc1OC)CN1CCC[C@@H]1C3 [TYLOPHORINE] | 0.033 µM
COc1ccc2c(CN3CCCC[C@H]3CO)cc3cc4c(cc3c2c1)OCO4 | 3.1 µM
COc1ccc2c(CNCCCCCO)cc3cc4c(cc3c2c1)OCO4 | 2.3 µM
COc1ccc2cc(C[C@H]3CCCCN3)c3cc(OC)c(OC)cc3c2c1 | 1.72 µM
COc1cc2c3c(c4cc(OC)c(OC)cc4c2cc1OC)CN1CCC[C@H]1C3 [(S)-TYLOPHORINE] | 0.011 µM
COc1ccc2c3c(c4cc5c(cc4c2c1)OCO5)C[C@H]1CCCN1C3 | 0.371 µM
COc1ccc2c(CN3CCC[C@H]3C(=O)O)cc3cc4c(cc3c2c1)OCO4 | 8.6 µM
COc1ccc2cc(C)c3cc(OC)c(OC)cc3c2c1 | > 10 µM
COc1ccc2c3c(c4cc(OC)c(OC)cc4c2c1)C[C@H]1CCCN1C3 [(-)-ANTOFINE] | 0.0049 µM
COc1ccc2c(CN3CCCC[C@H]3C(=O)O)cc3cc4c(cc3c2c1)OCO4 | 3 µM

tested on: PANC-1; assay: Growth inhibition of human PANC1 cells; format: functional

Structure (SMILES) | GI50
COc1ccc2c(CN3CCC[C@H]3CO)cc3cc4c(cc3c2c1)OCO4 | 6.2 µM
COc1ccc2c3c(c4cc(OC)c(OC)cc4c2c1)CC1CCCCN1C3 (racemic) | 0.0005 µM
COc1cc2c3c(c4cc(OC)c(OC)cc4c2cc1OC)CN1CCC[C@@H]1C3 [TYLOPHORINE] | 0.029 µM
COc1ccc2c(CN3CCCC[C@H]3CO)cc3cc4c(cc3c2c1)OCO4 | 2.3 µM
COc1ccc2c(CNCCCCCO)cc3cc4c(cc3c2c1)OCO4 | 2.2 µM
COc1ccc2cc(C[C@H]3CCCCN3)c3cc(OC)c(OC)cc3c2c1 | 0.904 µM
COc1cc2c3c(c4cc(OC)c(OC)cc4c2cc1OC)CN1CCC[C@H]1C3 [(S)-TYLOPHORINE] | 0.012 µM
COc1ccc2c3c(c4cc5c(cc4c2c1)OCO5)C[C@H]1CCCN1C3 | 0.156 µM
COc1ccc2c(CN3CCC[C@H]3C(=O)O)cc3cc4c(cc3c2c1)OCO4 | 7.4 µM
COc1ccc2cc(C)c3cc(OC)c(OC)cc3c2c1 | > 10 µM
COc1ccc2c3c(c4cc(OC)c(OC)cc4c2c1)C[C@H]1CCCN1C3 [(-)-ANTOFINE] | 0.0022 µM
COc1ccc2c(CN3CCCC[C@H]3C(=O)O)cc3cc4c(cc3c2c1)OCO4 | 2.3 µM

tested on: CCRF-CEM; assay: Growth inhibition of human CEM cells; format: functional

Structure (SMILES) | GI50
COc1ccc2c(CN3CCC[C@H]3CO)cc3cc4c(cc3c2c1)OCO4 | 2.7 µM
COc1ccc2c3c(c4cc(OC)c(OC)cc4c2c1)CC1CCCCN1C3 (racemic) | 0.002 µM
COc1cc2c3c(c4cc(OC)c(OC)cc4c2cc1OC)CN1CCC[C@@H]1C3 [TYLOPHORINE] | 0.067 µM
COc1ccc2c(CN3CCCC[C@H]3CO)cc3cc4c(cc3c2c1)OCO4 | 1.6 µM
COc1ccc2c(CNCCCCCO)cc3cc4c(cc3c2c1)OCO4 | 2 µM
COc1ccc2cc(C[C@H]3CCCCN3)c3cc(OC)c(OC)cc3c2c1 | 0.567 µM
COc1cc2c3c(c4cc(OC)c(OC)cc4c2cc1OC)CN1CCC[C@H]1C3 [(S)-TYLOPHORINE] | 0.015 µM
COc1ccc2c3c(c4cc5c(cc4c2c1)OCO5)C[C@H]1CCCN1C3 | 0.323 µM
COc1ccc2c(CN3CCC[C@H]3C(=O)O)cc3cc4c(cc3c2c1)OCO4 | 6.2 µM
COc1ccc2cc(C)c3cc(OC)c(OC)cc3c2c1 | > 2 µM
COc1ccc2c3c(c4cc(OC)c(OC)cc4c2c1)C[C@H]1CCCN1C3 [(-)-ANTOFINE] | 0.0052 µM
COc1ccc2c(CN3CCCC[C@H]3C(=O)O)cc3cc4c(cc3c2c1)OCO4 | 1.7 µM

tested on: not listed separately; assay: Inhibition of NF-kappaB-mediated transcription in human HepG cells; format: cell-based

Structure (SMILES) | IC50
COc1ccc2c(CN3CCC[C@H]3CO)cc3cc4c(cc3c2c1)OCO4 | 21 µM
COc1ccc2c3c(c4cc(OC)c(OC)cc4c2c1)CC1CCCCN1C3 (racemic) | 0.0014 µM
COc1cc2c3c(c4cc(OC)c(OC)cc4c2cc1OC)CN1CCC[C@@H]1C3 [TYLOPHORINE] | 0.317 µM
COc1ccc2c(CN3CCCC[C@H]3CO)cc3cc4c(cc3c2c1)OCO4 | 10.2 µM
COc1ccc2c(CNCCCCCO)cc3cc4c(cc3c2c1)OCO4 | 7.9 µM
COc1ccc2cc(C[C@H]3CCCCN3)c3cc(OC)c(OC)cc3c2c1 | 2.17 µM
COc1cc2c3c(c4cc(OC)c(OC)cc4c2cc1OC)CN1CCC[C@H]1C3 [(S)-TYLOPHORINE] | 0.041 µM
COc1ccc2c3c(c4cc5c(cc4c2c1)OCO5)C[C@H]1CCCN1C3 | 1.24 µM
COc1ccc2c(CN3CCC[C@H]3C(=O)O)cc3cc4c(cc3c2c1)OCO4 | 23.5 µM
COc1ccc2cc(C)c3cc(OC)c(OC)cc3c2c1 | > 10 µM
COc1ccc2c3c(c4cc(OC)c(OC)cc4c2c1)C[C@H]1CCCN1C3 [(-)-ANTOFINE] | 0.0073 µM
COc1ccc2c(CN3CCCC[C@H]3C(=O)O)cc3cc4c(cc3c2c1)OCO4 | 7 µM

tested on: not listed separately; assay: Inhibition of CRE-mediated transcription in human HepG cells; format: cell-based

Structure (SMILES) | IC50
COc1ccc2c(CN3CCC[C@H]3CO)cc3cc4c(cc3c2c1)OCO4 | 24 µM
COc1ccc2c3c(c4cc(OC)c(OC)cc4c2c1)CC1CCCCN1C3 (racemic) | 0.025 µM
COc1cc2c3c(c4cc(OC)c(OC)cc4c2cc1OC)CN1CCC[C@@H]1C3 [TYLOPHORINE] | 7.91 µM
COc1ccc2c(CN3CCCC[C@H]3CO)cc3cc4c(cc3c2c1)OCO4 | 18.5 µM
COc1ccc2c(CNCCCCCO)cc3cc4c(cc3c2c1)OCO4 | 8.6 µM
COc1ccc2cc(C[C@H]3CCCCN3)c3cc(OC)c(OC)cc3c2c1 | 12 µM
COc1cc2c3c(c4cc(OC)c(OC)cc4c2cc1OC)CN1CCC[C@H]1C3 [(S)-TYLOPHORINE] | > 0.3 µM
COc1ccc2c3c(c4cc5c(cc4c2c1)OCO5)C[C@H]1CCCN1C3 | 2.57 µM
COc1ccc2c(CN3CCC[C@H]3C(=O)O)cc3cc4c(cc3c2c1)OCO4 | 25 µM
COc1ccc2cc(C)c3cc(OC)c(OC)cc3c2c1 | > 15 µM
COc1ccc2c3c(c4cc(OC)c(OC)cc4c2c1)C[C@H]1CCCN1C3 [(-)-ANTOFINE] | 0.167 µM
COc1ccc2c(CN3CCCC[C@H]3C(=O)O)cc3cc4c(cc3c2c1)OCO4 | 12.1 µM

tested on: not listed separately; assay: Inhibition of AP1-mediated transcription in human HepG cells; format: cell-based

Structure (SMILES) | IC50
COc1ccc2c(CN3CCC[C@H]3CO)cc3cc4c(cc3c2c1)OCO4 | > 30 µM
COc1ccc2c3c(c4cc(OC)c(OC)cc4c2c1)CC1CCCCN1C3 (racemic) | 0.0186 µM
COc1cc2c3c(c4cc(OC)c(OC)cc4c2cc1OC)CN1CCC[C@@H]1C3 [TYLOPHORINE] | 2.26 µM
COc1ccc2c(CN3CCCC[C@H]3CO)cc3cc4c(cc3c2c1)OCO4 | 10 µM
COc1ccc2c(CNCCCCCO)cc3cc4c(cc3c2c1)OCO4 | 8.7 µM
COc1ccc2cc(C[C@H]3CCCCN3)c3cc(OC)c(OC)cc3c2c1 | 9.78 µM
COc1cc2c3c(c4cc(OC)c(OC)cc4c2cc1OC)CN1CCC[C@H]1C3 [(S)-TYLOPHORINE] | > 0.3 µM
COc1ccc2c3c(c4cc5c(cc4c2c1)OCO5)C[C@H]1CCCN1C3 | 3.38 µM
COc1ccc2c(CN3CCC[C@H]3C(=O)O)cc3cc4c(cc3c2c1)OCO4 | 27 µM
COc1ccc2cc(C)c3cc(OC)c(OC)cc3c2c1 | > 15 µM
COc1ccc2c3c(c4cc(OC)c(OC)cc4c2c1)C[C@H]1CCCN1C3 [(-)-ANTOFINE] | 0.135 µM
COc1ccc2c(CN3CCCC[C@H]3C(=O)O)cc3cc4c(cc3c2c1)OCO4 | 6.2 µM

tested on: not listed separately; assay: Inhibition of GRE-mediated transcription in human HepG cells; format: cell-based

Structure (SMILES) | IC50
COc1ccc2c(CN3CCC[C@H]3CO)cc3cc4c(cc3c2c1)OCO4 | 19 µM
COc1ccc2c3c(c4cc(OC)c(OC)cc4c2c1)CC1CCCCN1C3 (racemic) | 0.01 µM
COc1cc2c3c(c4cc(OC)c(OC)cc4c2cc1OC)CN1CCC[C@@H]1C3 [TYLOPHORINE] | 0.534 µM
COc1ccc2c(CN3CCCC[C@H]3CO)cc3cc4c(cc3c2c1)OCO4 | 20.7 µM
COc1ccc2c(CNCCCCCO)cc3cc4c(cc3c2c1)OCO4 | 9.2 µM
COc1ccc2cc(C[C@H]3CCCCN3)c3cc(OC)c(OC)cc3c2c1 | 4.5 µM
COc1cc2c3c(c4cc(OC)c(OC)cc4c2cc1OC)CN1CCC[C@H]1C3 [(S)-TYLOPHORINE] | 0.229 µM
COc1ccc2c3c(c4cc5c(cc4c2c1)OCO5)C[C@H]1CCCN1C3 | 2.44 µM
COc1ccc2c(CN3CCC[C@H]3C(=O)O)cc3cc4c(cc3c2c1)OCO4 | > 30 µM
COc1ccc2cc(C)c3cc(OC)c(OC)cc3c2c1 | > 15 µM
COc1ccc2c3c(c4cc(OC)c(OC)cc4c2c1)C[C@H]1CCCN1C3 [(-)-ANTOFINE] | 0.024 µM
COc1ccc2c(CN3CCCC[C@H]3C(=O)O)cc3cc4c(cc3c2c1)OCO4 | 7.2 µM

tested on: not listed separately; assay: Ratio of IC50 for NF-kappaB-mediated transcription in human HepG cells to GI50 for human HepG2 cells; format: functional

Structure (SMILES) | Activity | Ratio
COc1ccc2cc(C[C@H]3CCCCN3)c3cc(OC)c(OC)cc3c2c1 | 1.3 | –
COc1ccc2c3c(c4cc(OC)c(OC)cc4c2c1)C[C@H]1CCCN1C3 [(-)-ANTOFINE] | – | 1.5

tested on: not listed separately; assay: Ratio of IC50 for CRE-mediated transcription in human HepG cells to GI50 for human HepG2 cells; format: functional

Structure (SMILES) | Activity
COc1ccc2cc(C[C@H]3CCCCN3)c3cc(OC)c(OC)cc3c2c1 | 7
COc1ccc2c3c(c4cc(OC)c(OC)cc4c2c1)C[C@H]1CCCN1C3 [(-)-ANTOFINE] | 34

tested on: not listed separately; assay: Ratio of IC50 for AP1-mediated transcription in human HepG cells to GI50 for human HepG2 cells; format: functional

Structure (SMILES) | Activity
COc1ccc2cc(C[C@H]3CCCCN3)c3cc(OC)c(OC)cc3c2c1 | 5.7
COc1ccc2c3c(c4cc(OC)c(OC)cc4c2c1)C[C@H]1CCCN1C3 [(-)-ANTOFINE] | 28

tested on: not listed separately; assay: Ratio of IC50 for GRE-mediated transcription in human HepG cells to GI50 for human HepG2 cells; format: functional

Structure (SMILES) | Activity
COc1ccc2cc(C[C@H]3CCCCN3)c3cc(OC)c(OC)cc3c2c1 | 2.6
COc1ccc2c3c(c4cc(OC)c(OC)cc4c2c1)C[C@H]1CCCN1C3 [(-)-ANTOFINE] | 4.9

tested on: HepG; assay: Inhibition of DNA synthesis in human HepG cells; format: functional, cell-based

Structure (SMILES) | Activity
COc1ccc2c(CN3CCC[C@H]3CO)cc3cc4c(cc3c2c1)OCO4 | Dose-dependent effect
COc1ccc2cc(C[C@H]3CCCCN3)c3cc(OC)c(OC)cc3c2c1 | Dose-dependent effect
COc1ccc2c3c(c4cc5c(cc4c2c1)OCO5)C[C@H]1CCCN1C3 | Dose-dependent effect
COc1ccc2c3c(c4cc(OC)c(OC)cc4c2c1)C[C@H]1CCCN1C3 [(-)-ANTOFINE] | Dose-dependent effect

tested on: HepG; assay: Inhibition of protein synthesis in human HepG cells; format: functional, cell-based

Structure (SMILES) | Activity
COc1ccc2c(CN3CCC[C@H]3CO)cc3cc4c(cc3c2c1)OCO4 | inactive
COc1ccc2cc(C[C@H]3CCCCN3)c3cc(OC)c(OC)cc3c2c1 | Dose-dependent effect
COc1ccc2c3c(c4cc5c(cc4c2c1)OCO5)C[C@H]1CCCN1C3 | Active
COc1ccc2c3c(c4cc(OC)c(OC)cc4c2c1)C[C@H]1CCCN1C3 [(-)-ANTOFINE] | Active

tested on: HepG; assay: Inhibition of RNA synthesis in human HepG cells; format: functional, cell-based

Structure (SMILES) | Activity
COc1ccc2c(CN3CCC[C@H]3CO)cc3cc4c(cc3c2c1)OCO4 | Active
COc1ccc2cc(C[C@H]3CCCCN3)c3cc(OC)c(OC)cc3c2c1 | Dose-dependent effect
COc1ccc2c3c(c4cc(OC)c(OC)cc4c2c1)C[C@H]1CCCN1C3 [(-)-ANTOFINE] | inactive
